Numbers after ± are expanded uncertainties.
Conditions: for viscosity / mass density: 101.33 kPa, Liquid; for viscosity: Cone and plate viscometry; for mass density: Vibrating tube method; for Glass transition temperature: DSC; for Normal melting temperature: Crystal, DTA

| SMILES | viscosity (278.15 K) | viscosity (283.15 K) | mass density (283.15 K) | viscosity (288.15 K) | mass density (288.15 K) | viscosity (293.15 K) | mass density (293.15 K) | mass density (295.15 K) | viscosity (298.15 K) | mass density (298.15 K) | viscosity (303.15 K) | mass density (303.15 K) | viscosity (308.15 K) | mass density (308.15 K) | viscosity (313.15 K) | mass density (313.15 K) | viscosity (318.15 K) | mass density (318.15 K) | viscosity (323.15 K) | mass density (323.15 K) | other results |
| --- | --- | --- | --- | --- | --- | --- | --- | --- | --- | --- | --- | --- | --- | --- | --- | --- | --- | --- | --- | --- | --- |
| CCCCCCCCCCCCCC[P+](CCCCCC)(CCCCCC)CCCCCC.N#Cc1nc[n-]c1C#N [trihexyl(tetradecyl)phosphonium 4,5-dicyanoimidazolide] | 2490 ± 240 mPa·s | 1630 ± 150 mPa·s | 928.9 ± 4.7 kg/m3 | 1090 ± 100 mPa·s | 925.7 ± 4.7 kg/m3 | 754 ± 63 mPa·s | 922.6 ± 4.7 kg/m3 | 921.5 ± 4.7 kg/m3 | 535 ± 43 mPa·s | 919.7 ± 4.7 kg/m3 | 391 ± 30 mPa·s | 916.8 ± 4.6 kg/m3 | 291 ± 21 mPa·s | 913.9 ± 4.6 kg/m3 | 220 ± 16 mPa·s | 911 ± 4.6 kg/m3 | 171 ± 12 mPa·s | 908.1 ± 4.6 kg/m3 | 135 ± 9 mPa·s | 905.2 ± 4.5 kg/m3 | viscosity (328.15 K): 108 ± 7 mPa·s; mass density (328.15 K): 902.4 ± 4.5 kg/m3; viscosity (333.15 K): 88 ± 6 mPa·s; mass density (333.15 K): 899.6 ± 4.5 kg/m3; viscosity (338.15 K): 73 ± 5 mPa·s; mass density (338.15 K): 896.7 ± 4.5 kg/m3; mass density (343.15 K): 893.9 ± 4.5 kg/m3; mass density (348.15 K): 891 ± 4.4 kg/m3; mass density (353.15 K): 888.2 ± 4.4 kg/m3; Glass transition temperature: -78 ± 2 °C |
| CCCCCCCC[P+](CC)(CC)CC.O=[N+]([O-])c1c[n-]cn1 [triethyloctylphosphonium 4-nitroimidazolide] | 1220 ± 110 mPa·s | 804 ± 68 mPa·s | 1037.8 ± 5.8 kg/m3 | 547 ± 44 mPa·s | 1034.8 ± 5.8 kg/m3 | 382 ± 29 mPa·s | 1031.8 ± 5.8 kg/m3 | 1030.6 ± 5.7 kg/m3 | 276 ± 20 mPa·s | 1028.8 ± 5.7 kg/m3 | 204 ± 14 mPa·s | 1025.8 ± 5.7 kg/m3 | 155 ± 11 mPa·s | 1022.9 ± 5.7 kg/m3 | 120 ± 8 mPa·s | 1020.1 ± 5.6 kg/m3 | 95 ± 6 mPa·s | 1017.2 ± 5.6 kg/m3 | 76 ± 5 mPa·s | 1014.3 ± 5.6 kg/m3 | viscosity (328.15 K): 62 ± 4 mPa·s; mass density (328.15 K): 1011.4 ± 5.5 kg/m3; viscosity (333.15 K): 52 ± 3 mPa·s; mass density (333.15 K): 1008.5 ± 5.5 kg/m3; mass density (338.15 K): 1005.7 ± 5.5 kg/m3; mass density (343.15 K): 1002.8 ± 5.4 kg/m3; mass density (348.15 K): 1000 ± 5.4 kg/m3; mass density (353.15 K): 997.1 ± 5.4 kg/m3; Normal melting temperature: -28 ± 2 °C |
| CCC=C[P+](CC)(CC)CC.O=[N+]([O-])c1cn[n-]c1 [(buten-1-yl)triethylphosphonium 4-nitropyrazolide] | – | – | – | – | – | – | – | – | 134 ± 9 mPa·s | – | 102 ± 7 mPa·s | – | 79 ± 5 mPa·s | – | 63 ± 4 mPa·s | – | 52 ± 3 mPa·s | – | – | – | Normal melting temperature: 39 ± 2 °C |
| CC(=O)[O-].CCCCCCCCCCCCCC[P+](CCCCCC)(CCCCCC)CCCCCC [trihexyl(tetradecyl)phosphonium acetate] | 1820 ± 170 mPa·s | 1200 ± 110 mPa·s | 895 ± 4.5 kg/m3 | 814 ± 69 mPa·s | 891.9 ± 4.4 kg/m3 | 566 ± 45 mPa·s | 888.9 ± 4.4 kg/m3 | 887.6 ± 4.4 kg/m3 | 406 ± 31 mPa·s | 885.8 ± 4.4 kg/m3 | 298 ± 22 mPa·s | 882.8 ± 4.4 kg/m3 | 224 ± 16 mPa·s | 879.8 ± 4.3 kg/m3 | 172 ± 12 mPa·s | 876.8 ± 4.3 kg/m3 | 135 ± 9 mPa·s | 873.7 ± 4.3 kg/m3 | 107 ± 7 mPa·s | 870.7 ± 4.3 kg/m3 | mass density (328.15 K): 867.7 ± 4.3 kg/m3; mass density (333.15 K): 864.7 ± 4.2 kg/m3; mass density (338.15 K): 861.7 ± 4.2 kg/m3; mass density (343.15 K): 858.7 ± 4.2 kg/m3; mass density (348.15 K): 855.7 ± 4.2 kg/m3; mass density (353.15 K): 852.7 ± 4.2 kg/m3 |
| CCCC[P+](CC)(CC)CC.Cc1ncc([N+](=O)[O-])[n-]1 [butyltriethylphosphonium 2-methyl-5-nitroimidazolide] | 2180 ± 210 mPa·s | 1350 ± 120 mPa·s | 1074.4 ± 6.3 kg/m3 | 858 ± 73 mPa·s | 1071.3 ± 6.2 kg/m3 | 569 ± 46 mPa·s | 1068.3 ± 6.2 kg/m3 | 1067.1 ± 6.2 kg/m3 | 391 ± 30 mPa·s | 1065.3 ± 6.1 kg/m3 | 277 ± 20 mPa·s | 1062.3 ± 6.1 kg/m3 | 202 ± 14 mPa·s | 1059.3 ± 6.1 kg/m3 | 150 ± 10 mPa·s | 1056.5 ± 6 kg/m3 | 115 ± 8 mPa·s | 1053.6 ± 6 kg/m3 | 90 ± 6 mPa·s | 1050.7 ± 6 kg/m3 | viscosity (328.15 K): 72 ± 5 mPa·s; mass density (328.15 K): 1047.8 ± 5.9 kg/m3; viscosity (333.15 K): 58 ± 4 mPa·s; mass density (333.15 K): 1044.9 ± 5.9 kg/m3; mass density (338.15 K): 1042.1 ± 5.9 kg/m3; mass density (343.15 K): 1039.2 ± 5.8 kg/m3; mass density (348.15 K): 1036.4 ± 5.8 kg/m3; mass density (353.15 K): 1033.5 ± 5.8 kg/m3; Normal melting temperature: 17 ± 2 °C; Glass transition temperature: -71 ± 2 °C |

— the NIST ThermoML archive (doi:10.1021/acs.jced.6b00269)
